Patent US20260035364A1, “BICYCLIC TETRAHYDROTHIAZEPINE DERIVATIVES” (Hoffmann-La Roche Inc., priority 2022, published 2026)

System: primary human T-cells
Test: IL2 secretion measurements in CD3-stimulated T-cells
Type: cell-based
Conditions: Homo sapiens, T-cell, 24 h, CD3 condition; for Emax: IL2 after 24 hours, 20 μM reference compound A1 = 100%, read-out: Emax IL2 (% activation); for EC50: IL2 secretion after 24 hours, read-out: Tcell IL2 CD3 EC50
How it was run: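 Expanded primary human T-cells (100k/well) were stimulated on CD3 antibody-coated or PBS-coated plates with compounds in 5–6 point dose response from 20 or 10 μM top final (dilution factor 3.333, 0.2% DMSO final). IL2 in 24 h supernatants was measured by ProQuantum immunoassay or ELISA, normalized to DMSO (0%) and 20 μM reference compound A1 (100%) to fit EC50 and Emax.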

| SMILES | Emax [%] | EC50 [nM] |
| --- | --- | --- |
| CC(C)(c1nnc(-c2ccc3c(c2)N(Cc2ccc(-c4ccc(OC(F)(F)F)cn4)cc2)C(=O)[C@@H](N)CS3(=O)=O)o1)S(C)(=O)=O [Example 69, (3R)-3-amino-1,1-diketo-7-[5-(1-mesyl-1-methyl-ethyl)-1,3,4-oxadiazol-2-yl]-5-[4-[5-(trifluoromethoxy)-2-pyridyl]benzyl]-2,3-dihydro-1λ6,5-benzothiazepin-4-one] | 97 | 497 |
| CC(C)(c1nc(-c2cc3c(cc2F)S(=O)(=O)C[C@H](N)C(=O)N3Cc2ccc(-c3noc(C(F)(F)F)n3)cc2)no1)S(C)(=O)=O [Example 46, (3R)-3-amino-8-fluoro-7-[5-(1-methyl-1-methylsulfonyl-ethyl)-1,2,4-oxadiazol-3-yl]-1,1-dioxo-5-[[4-[5-(trifluoromethyl)-1,2,4-oxadiazol-3-yl]phenyl]methyl]-2,3-dihydro-1λ6,5-benzothiazepin-4-one] | 317 | 491 |
| CC(C)(c1nnc(-c2ccc3c(c2)N(Cc2ccc(Oc4cccc(OC(F)F)c4)cc2)C(=O)[C@@H](N)CS3(=O)=O)o1)S(C)(=O)=O [Example 47, (3R)-3-amino-5-[[4-[3-(difluoromethoxy)phenoxy]phenyl]methyl]-7-[5-(1-methyl-1-methylsulfonyl-ethyl)-1,3,4-oxadiazol-2-yl]-1,1-dioxo-2,3-dihydro-1λ6,5-benzothiazepin-4-one] | 135 | 1370 |
| CS(=O)(=O)Cn1nnnc1-c1cc2c(cc1F)S(=O)(=O)C[C@H](N)C(=O)N2Cc1ccc(Oc2ccccc2)cc1 [Example 55, (3R)-3-amino-8-fluoro-7-[1-(methylsulfonyl-methyl)tetrazol-5-yl]-1,1-dioxo-5-[(4-phenoxyphenyl)methyl]-2,3-dihydro-1λ6,5-benzothiazepin-4-one] | 85 | 4180 |
| CC(C)(c1nnc(-c2cc3c(cc2F)S(=O)(=O)C[C@H](N)C(=O)N3Cc2ccc(OCC(F)(F)F)cc2)o1)S(C)(=O)=O [Example 24, (3R)-3-amino-8-fluoro-7-[5-(1-methyl-1-methylsulfonyl-ethyl)-1,3,4-oxadiazol-2-yl]-1,1-dioxo-5-[[4-(2,2,2-trifluoroethoxy)phenyl]methyl]-2,3-dihydro-1λ6,5-benzothiazepin-4-one] | 24 | 1060 |
